In brackets after ≈: the same amount, converted by molar mass.
What was measured:
[1] = Aqueous solubility in PBS, pH 7.4; format: physicochemical; settings: phosphate buffered saline, pH 7.4, aqueous buffer, thermodynamic from solid, pH 7.4 phosphate buffered saline, 24 hours, amorphous or crystalline material; read-out: Aqu. Solubility
In short: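 Excess solid suspended at 0.5 mg/mL in PBS pH 7.4 and stirred 24 hours. Filtrate (0.45 μm) diluted 1:1 with ACN:H2O and quantified by UPLC against a standard curve; residual solid phase checked by XRPD and PLM.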

[2] = test system: HIV-1 wild-type (R8) virus; experiment: Viral KINetics in Green cells (VIKING) assay, HIV-1 replication in MT4-GFP reporter cells; format: cell-based; settings: Human immunodeficiency virus 1, 10% normal human serum, MT4-GFP cells, HIV-1 wild-type (R8); read-out: Viking (10% NHS), IC50
In short: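 Compounds in 3-fold, 10-point series (typical 4 μM-0.2 nM) in 10% normal human serum received MT4 GFP-reporter T cells pre-infected overnight with wild-type R8 virus (MOI ~0.01). Ratio of GFP-positive cells at 72 vs 48 h defined replication; IC50 from nonlinear 4-parameter dose-response fitting.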

C#C[C@]1(CO)O[C@@H](n2ccc3c(N)nc(Cl)nc32)C[C@@H]1OC(=O)CCCCCCC [Example 24, (2R,3S,5R)-5-(4-amino-2-chloro-7H-pyrrolo[2,3-d]pyrimidin-7-yl)-2-ethynyl-2-(hydroxymethyl)tetrahydrofuran-3-yl octanoate]
solubility at 24 h [1]: < 1 µg/mL
IC50 [2]: 1.7 nM

C#C[C@]1(CO)O[C@@H](n2ccc3c(N)nc(Cl)nc32)C[C@@H]1OC(=O)OCCCCC[C@@H]1SC[C@@H]2NC(=O)N[C@@H]21 [Example 160]
solubility at 24 h [1]: < 1 µg/mL
IC50 [2]: 11 nM

C#C[C@]1(COC(=O)OCc2ccccc2)O[C@@H](n2ccc3c(N)nc(Cl)nc32)C[C@@H]1OC(=O)OCc1cccnc1 [Example 174]
solubility at 24 h [1]: < 1 µg/mL
IC50 [2]: 13 nM

C#C[C@]1(COC(=O)OCCCCCCC)O[C@@H](n2ccc3c(N)nc(Cl)nc32)C[C@@H]1O [Example 121]
solubility at 24 h [1]: 7 µg/mL (≈ 15.5 µM)
IC50 [2]: 3.1 nM

C#C[C@]1(CO)O[C@@H](n2ccc3c(NC(=O)CCCC)nc(Cl)nc32)C[C@@H]1O [Example 22, N-(2-chloro-7-((2R,4S,5R)-5-ethynyl-4-hydroxy-5-(hydroxymethyl)tetrahydrofuran-2-yl)-7H-pyrrolo[2,3-d]pyrimidin-4-yl)pentanamide]
solubility at 24 h [1]: 362 µg/mL (≈ 921 µM)
IC50 [2]: 199 nM

C#C[C@]1(COC(=O)OCc2ccccc2)O[C@@H](n2ccc3c(N)nc(Cl)nc32)C[C@@H]1OC(=O)CCCCC [Example 210]
solubility at 24 h [1]: < 1 µg/mL
IC50 [2]: 2.9 nM

C#C[C@]1(COC(=O)OCCCCC[C@@H]2SC[C@@H]3NC(=O)N[C@@H]32)O[C@@H](n2ccc3c(N)nc(Cl)nc32)C[C@@H]1OC(=O)OCC [Example 171]
solubility at 24 h [1]: 1.9 µg/mL (≈ 2.98 µM)
IC50 [2]: 18 nM

C#C[C@]1(COC(=O)OCc2oc(=O)oc2C)O[C@@H](n2ccc3c(N)nc(Cl)nc32)C[C@@H]1O [Example 143]
solubility at 24 h [1]: 229 µg/mL (≈ 493 µM)
IC50 [2]: 2.9 nM

C#C[C@]1(COC(=O)OCCCCCCCCC)O[C@@H](n2ccc3c(N)nc(Cl)nc32)C[C@@H]1O [Example 126]
solubility at 24 h [1]: 21 µg/mL (≈ 43.8 µM)
IC50 [2]: 2.6 nM

C#C[C@]1(COC(=O)CCCCCCCCCCCCC)O[C@@H](n2ccc3c(N)nc(Cl)nc32)C[C@@H]1O [Example 87]
solubility at 24 h [1]: < 1 µg/mL
IC50 [2]: 3.8 nM

C#C[C@]1(COC(=O)OCc2cc[nH]c(=O)c2)O[C@@H](n2ccc3c(N)nc(Cl)nc32)C[C@@H]1OC(=O)OCc1cc[nH]c(=O)c1 [Example 225]
solubility at 24 h [1]: 70 µg/mL (≈ 115 µM)
IC50 [2]: 13 nM

C#C[C@]1(COC(=O)CCCC[C@@H]2SC[C@@H]3NC(=O)N[C@@H]32)O[C@@H](n2ccc3c(N)nc(Cl)nc32)C[C@@H]1OC(=O)CCCC[C@@H]1SC[C@@H]2NC(=O)N[C@@H]21 [Example 74]
solubility at 24 h [1]: < 1 µg/mL
IC50 [2]: 69 nM

C#C[C@]1(COC(=O)OCc2oc(=O)oc2C)O[C@@H](n2ccc3c(N)nc(Cl)nc32)C[C@@H]1OC(=O)OCc1oc(=O)oc1C [Example 53, ((2R,3S,5R)-5-(4-amino-2-chloro-7H-pyrrolo[2,3-d]pyrimidin-7-yl)-2-ethynyl-3-((((5-methyl-2-oxo-1,3-dioxol-4-yl)methoxy)carbonyl)oxy)tetrahydrofuran-2-yl)methyl ((5-methyl-2-oxo-1,3-dioxol-4-yl)methyl) carbonate]
solubility at 24 h [1]: < 1 µg/mL
IC50 [2]: 1.7 nM

C#C[C@]1(CO)O[C@@H](n2ccc3c(N)nc(Cl)nc32)C[C@@H]1OC(=O)OCCCCCCCCCC [Example 10, (2R,3S,5R)-5-(4-amino-2-chloro-7H-pyrrolo[2,3-d]pyrimidin-7-yl)-2-ethynyl-2-(hydroxymethyl)tetrahydrofuran-3-yl decyl carbonate]
solubility at 24 h [1]: < 1 µg/mL
IC50 [2]: 9.9 nM

C#C[C@]1(COC(=O)OCc2ccccc2)O[C@@H](n2ccc3c(N)nc(Cl)nc32)C[C@@H]1OC(=O)OCCCCCCCC [Example 213]
solubility at 24 h [1]: < 1 µg/mL
IC50 [2]: 7.9 nM

C#C[C@]1(CO)O[C@@H](n2ccc3c(N)nc(Cl)nc32)C[C@@H]1OC(=O)CCC [Example 179]
solubility at 24 h [1]: 27 µg/mL (≈ 71.3 µM)
IC50 [2]: 11 nM

C#C[C@]1(COC(=O)OCCCCCCCCCCCCCC)O[C@@H](n2ccc3c(N)nc(Cl)nc32)C[C@@H]1O [Example 163]
solubility at 24 h [1]: < 1 µg/mL
IC50 [2]: 3.5 nM

C#C[C@]1(COC(=O)CCCCC)O[C@@H](n2ccc3c(N)nc(Cl)nc32)C[C@@H]1O [Example 116]
solubility at 24 h [1]: 39 µg/mL (≈ 95.9 µM)
IC50 [2]: 4.2 nM

C#C[C@]1(COC(=O)OCCCCCCCC)O[C@@H](n2ccc3c(N)nc(Cl)nc32)C[C@@H]1O [Example 39, ((2R,3S,5R)-5-(4-amino-2-chloro-7H-pyrrolo[2,3-d]pyrimidin-7-yl)-2-ethynyl-3-hydroxytetrahydrofuran-2-yl)methyl octyl carbonate]
solubility at 24 h [1]: < 1 µg/mL
IC50 [2]: 3 nM

C#C[C@]1(CO)O[C@@H](n2ccc3c(NC(=O)CCCCCCCCCCC)nc(Cl)nc32)C[C@@H]1O [Example 21, N-(2-chloro-7-((2R,4S,5R)-5-ethynyl-4-hydroxy-5-(hydroxymethyl)tetrahydrofuran-2-yl)-7H-pyrrolo[2,3-d]pyrimidin-4yl)dodecanamide]
solubility at 24 h [1]: < 1 µg/mL
IC50 [2]: 18 nM

C#C[C@]1(CO)O[C@@H](n2ccc3c(N)nc(Cl)nc32)C[C@@H]1OC(=O)CCCOC(C)=O [Example 178]
solubility at 24 h [1]: 143 µg/mL (≈ 327 µM)
IC50 [2]: 3.8 nM

C#C[C@]1(CO)O[C@@H](n2ccc3c(N)nc(Cl)nc32)C[C@@H]1OC(=O)CC1CCCCC1 [Example 177]
solubility at 24 h [1]: < 1 µg/mL
IC50 [2]: 8.5 nM

C#C[C@]1(COC(=O)CCC23CC4CC(CC(C4)C2)C3)O[C@@H](n2ccc3c(N)nc(Cl)nc32)C[C@@H]1O [Example 62, ((2R,3S,5R)-5-(4-amino-2-chloro-7H-pyrrolo[2,3-d]pyrimidin-7-yl)-2-ethynyl-3-hydroxytetrahydrofuran-2-yl)methyl 3-(adamantan-1-yl)propanoate]
solubility at 24 h [1]: < 1 µg/mL
IC50 [2]: 3.9 nM

C#C[C@]1(COC(=O)OCc2ccccc2)O[C@@H](n2ccc3c(N)nc(Cl)nc32)C[C@@H]1O [Example 114, ((2R,3S,5R)-5-(4-amino-2-chloro-7H-pyrrolo[2,3-d]pyrimidin-7-yl)-2-ethynyl-3-hydroxytetrahydrofuran-2-yl)methyl benzyl carbonate]
solubility at 24 h [1]: 66 µg/mL (≈ 149 µM)
IC50 [2]: 3.9 nM

C#C[C@]1(CO)O[C@@H](n2ccc3c(N)nc(Cl)nc32)C[C@@H]1OC(=O)CCCCCCCCCCCCC [Example 26, (2R,3S,5R)-5-(4-amino-2-chloro-7H-pyrrolo[2,3-d]pyrimidin-7-yl)-2-ethynyl-2-(hydroxymethyl)tetrahydrofuran-3-yl tetradecanoate]
solubility at 24 h [1]: < 1 µg/mL
IC50 [2]: 7 nM

C#C[C@]1(CO)O[C@@H](n2ccc3c(N)nc(Cl)nc32)C[C@@H]1OC(=O)OC(CC)CC [Example 84]
solubility at 24 h [1]: 69 µg/mL (≈ 163 µM)
IC50 [2]: 129 nM

C#C[C@]1(COC(=O)CCCCCCCCCCC)O[C@@H](n2ccc3c(N)nc(Cl)nc32)C[C@@H]1O [Example 90]
solubility at 24 h [1]: < 1 µg/mL
IC50 [2]: 3.9 nM

C#C[C@]1(COC(=O)CCCC[C@@H]2SC[C@@H]3NC(=O)N[C@@H]32)O[C@@H](n2ccc3c(N)nc(Cl)nc32)C[C@@H]1O [Example 145]
solubility at 24 h [1]: 38 µg/mL (≈ 71 µM)
IC50 [2]: 3.2 nM

From patent US20240287124A1, “PRODRUGS OF 4'-SUBSTITUTED NUCLEOSIDE REVERSE TRANSCRIPTASE INHIBITORS” (Merck Sharp & Dohme LLC, priority 2023, published 2024)
